Here are results for three compounds from patent US7618697B2, “Carboxylic acid esters of zosteric acid for prevention of biofouling” (Ciba Specialty Chemicals Corporation, priority 2005, dated 2009).

This assay has as its system Staphyloccus aureus. Kind of assay: Microbial antiadhesion assay on coated PMMA test pins. Format: cell-based. Particulars: adhering microbes as percent of control pins (acrylate film former only = 100%), test concentration 0.50% in Glascol LS26 acrylate film former, 60 min in S. aureus suspension, immunological detection. As to the method:
Microbial Antiadhesion Assay
According to the method of Nature Medicine Vol. 6, No. 8, 1053-1056, Zosterate esters are dissolved in a solution containing an acrylate polymeric film former (Glascol LS26, 4.6% active). Test pins made of PMMA are dipped into the solutions, incubated for 20 minutes and allowed to dry. The test pins are incubated in a suspension of Staphyloccus aureus for 60 min, then rinsed with PBS buffer. The microbial cells adhering to the pin are detected in an immunological assay using specific antibodies against the test strain which are then detected […]. The results are reported as a percent relative to the control pins (treated with acrylate film former only), a value of 100% represents the value observed on the control pins; a value of 42% represents a 0.42× the amount of microbes found on the pins treated with acrylate film former only.
On to `CCCCOC(=O)/C=C/c1ccc(OS(=O)(=O)O)cc1` [1-Butyl zosterate], for which the “Results on PMMA Based on Control” value is on record as 70%.

As to `CCC(C)OC(=O)/C=C/c1ccc(OS(=O)(=O)O)cc1` (stereo not drawn) [2-Butyl zosterate], the “Results on PMMA Based on Control” value is on record as 42%.

On to `COC(=O)/C=C/c1ccc(OS(=O)(=O)O)cc1` [Methyl zosterate, Methyl Zosterate], for which the “Results on PMMA Based on Control” value is 28%.
